Data reported in patent US20260027161A1, “BACTERIAL STRAINS FOR TREATING DISEASE” (MICROBA IP PTY LTD, priority 2021, published 2026).

Columns and labels:
[1] = test system: DSS induced murine colitis; test: Acute model of DSS induced murine colitis, prophylactic model; assay type: in vivo, C57BL/6 female mice
Excerpt: The present inventors hypothesised that the big-data approach could be used to identify novel candidate live biotherapeutics for inflammatory bowel disease. We therefore tested the therapeutic efficacy of I. colisanans MH27-1 in an acute model of DSS induced murine colitis (FIG. 4A) as this is a well-documented model of epithelial injury and repair. […] As expected, prednisone exacerbated the DSS induced weight loss (Yamamoto, 2013), however DSS induced weight loss was ameliorated by treatment with I. colisanans MH27-1 or F. prausnitzii A2-165 (FIG. 4B).
I. colisanans strains were grown to early stationary phase in PYG or YG/V. F. prausnitzii was grown in TY medium. The cell density of the individual cultures was calculated using a Helber Counting Chamber. To prepare the bacterial gavage solutions, individual cultures were centrifuged under a layer of sterile heavy mineral oil at 5,000 g for 10 minutes and the cell-free supernatant was then discarded. The cell pellets were washed in 1.5 ml of sterile anaerobic buffered diluent (38 ml/L each of salt solutions 2 & 3 (McSweeney, 2005), 1 ml/L of 0.1% (w/v) resazurin solution, 1 g/L L-cysteine) and then centrifuged again. […]
For the prophylactic model, six-week-old C57BL/6 female mice purchased from Animal Resources Centres (Western Australia, Australia) were randomised and then co-housed for 7 days prior to experimentation. […] Body weights and stool consistency were recorded daily. […]
Animals were examined with a small animal gastrointestinal endoscope (Karl Storz Endoskope, Tuttlingen, Germany) on days −1, 2 and 6 to assess the extent of colon mucosal inflammation (Marks, 2015; and Liu, 2019). […] To grade colitis severity, the extent of inflammation and epithelial injury in the tissue sections were graded semi-quantitatively using an established scoring system (Table 6). The samples were then randomised and subsequently scored in a blinded by a trained gastrointestinal pathologist.

DSS colitis = test: Acute mouse model of DSS colitis, therapeutic model (I. colisanans MH27-2); assay type: in vivo, female C57BL/6 mice; conditions: 2.5% DSS, daily treatment Day 4 to Day 10
Excerpt: The therapeutic efficacy of I. colisanans MH27-2 in an acute mouse model of DSS colitis was examined, with prednisone acting as a positive control drug.
For the therapeutic model, groups of 10 or 20 female C57BL/6 mice were used. All animals, except those in the healthy group, were given 2.5% dextran sodium sulfate (DSS) in the drinking water for 6 days total (Day 0 to Day 5). DSS was then withdrawn and replaced with normal drinking water for a further 5 days (Day 6 to Day 10). For the treatments, mice were given once daily oral gavage of 200 μL of I. colisanans MH27-2 at a dose of 2×10^8 viable cells per day, or vehicle consisting of sterile glycerol and phosphate buffered salt solution. The positive control drug prednisone was similarly administered via oral gavage at a dose of 2 mg/kg per day. Treatments started on Day 4 and were given for 7 consecutive days until Day 10. Animals were sacrificed on Day 10 approximately 4 hours after the final treatment. Colon was harvested, rinsed, weighed, photographed, cut longitudinally. Colon tissue was fixed in 4% formalin and kept in 70% ethanol for histopathology using the Swiss-roll method.

[2] = test system: mild to moderate flares of ulcerative colitis; conditions: first line therapy; cited from earlier work
[3] = test system: ZO1 expression in T84 cells; test: IFNγ-mediated loss of ZO1 expression in T84 cells (immunofluorescence); assay type: cell-based, human; conditions: pre-treatment with 1 mM metabolite for 18 hours, IFNγ 48 hours
[4] = test system: IL-6 mediated activation of STAT3; test: IL-6 mediated STAT3 activation, HEK-Blue IL-6 reporter cell line (SEAP); assay type: cell-based, human; conditions: control inhibitor, 10 μM
Excerpt: (§1) Increased levels of the pro-inflammatory cytokine IL-6 and signalling via its receptor IL-6R is associated with IBD pathogenesis. […] These effects are mediated by IL-6 receptor binding which causes JAK kinase activation and STAT3 dimerization in combination with activation of MAPK/ERK and other downstream kinases. Here, we examined whether I. colisanans MH27-1 and MH27-2 can suppress IL-6 classical and trans signalling mediated activation of STAT3 using the HEK-Blue™ IL-6 reporter cell line. The HEK-Blue™ IL-6 reporter cell line constitutively expresses the human IL-6 receptor and binding of IL-6 to the receptor triggers expression of a STAT3-responsive SEAP reporter. […] Additionally, I. colisanans MH27-2 suppressed IL-6 trans signalling mediated activation of STAT3 (FIG. 6G).
(§2) To assess IL-6 and IL-6/IL-6R-mediated STAT3 suppressive activity, three independent colonies were inoculated and grown until early stationary phase. […]
(§3) IL-6- and IL-6/IL-6R mediated STAT3 activity was assessed using the HEK Blue IL-6 cell line (Invivogen). […] After 24 hours, the STAT3 regulated SEAP reporter activity was assessed using Quanti Blue solution as recommended by the manufacturer (Invivogen). […] Cytotoxicity was assessed using the CellTiter-Glo® 2.0 Cell Viability Assay (Promega, Australia) as recommended by the manufacturer.

[5] = test system: IL-6 trans signalling mediated activation of STAT3; test: IL-6/IL-6R trans signalling mediated STAT3 activation, HEK-Blue IL-6 reporter cell line; assay type: cell-based, human; conditions: control inhibitor, 10 μM
Excerpt: as §1, §2, §3

[6] = test system: IL-23-mediated activation of STAT3; test: IL-23 mediated STAT3 activation, HEK-Blue IL-23 reporter cell line (SEAP); assay type: cell-based, human
Excerpt: The present inventors next sought to investigate whether bacterial products naturally produced by the gut bacterium I. colisanans MH27, can modulate IL-23 mediated activation of STAT3. The JAK-STAT immune axis is a recognised and validated drug target for IBD (Salas et al., 2020) and other diseases (McLornan et al., 2021) with JAK-STAT pathway signalling targeted by several approved IBD therapeutics including anti-IL-23 antibodies (e.g., Ustekinumab) and small molecule inhibitors (e.g., tofacitinib) (Hu et al., 2021). As STAT3 suppression can reduce damaging inflammation, I. colisanans MH27 and/or its bioactives could potentially be used as novel immunoregulatory therapies for IBD and other diseases. The present inventors therefore examined whether I. colisanans MH27 can suppress IL-23-mediated activation of STAT3 using the HEK-Blue™ IL-23 reporter cell line. […]
IL-23-mediated STAT3 activity was assessed using the HEK Blue IL-23 cell line (Invivogen). […] SEAP is secreted into the medium and the extent of SEAP expression can be quantified using QUANTI-Blue solution. […]
SEAP production was quantified using QUANTI-BIue™ solution and recorded as optical density (OD) at 630 nm using a PHERAstar FS plate reader (BMG Labtech). […]

[7] = DSS treated mice, colon histology

C[C@]12C=CC(=O)C=C1CC[C@@H]1[C@@H]2C(=O)C[C@@]2(C)[C@H]1CC[C@]2(O)C(=O)CO [prednisone]
DSS induced weight loss (body weight) ([1]; 3.5% DSS, daily treatment, compared to DSS+vehicle): exacerbated
disease pathology (histopathological score) [1, 7]: significant improvement in disease pathology
epithelial injury [1, 7]: ameliorated
histological evidence of colitis (DSS colitis): ameliorated

Nc1ccc(O)c(C(=O)O)c1 [Mesalmine]
response rates [2]: 40%-70%

O=C(O)C=Cc1c[nH]c2ccccc12 [IAyA, indole-3-acrylic acid]
IFNγ-induced reduction in ZO1 expression [3]: significantly ameliorated

C[C@@H]1CCN(C(=O)CC#N)C[C@@H]1N(C)c1ncnc2[nH]ccc12 [tofacitinib]
IL-6 mediated activation of STAT3 [4]: fully prevented
IL-6/IL-6R mediated activation of STAT3 [5]: fully prevented
IL-23 mediated activation of STAT3 ([6]; control inhibitor, 5 μM): fully prevented

O=C1NC(Cc2ccccc2)C(=O)N2CCCC12 (centres unmarked) [cyclo(-Phe-Pro)]
IL-23 mediated activation of STAT3 ([6]; pure metabolite, relative to the vehicle control): suppressed

O=C(O)CCc1c[nH]c2ccccc12 [IPA, indole-3-proprionic acid]
IFNγ-induced reduction in ZO1 expression [3]: significantly ameliorated
